Target: DCAF15 and RRM2 domain in RBM39 (Homo sapiens (Human), UniProt Q14498+Q66K64)
Test: TR-FRET biochemical assay, DCAF15 activity (recruitment of RBM39 RRM2 domain to DCAF15)
Type: binding
Details: TR-FRET 520/490 nm ratio; biotinylated DCAF15 200 nM, Bodipy-FL RBM39 RRM2 200 nM, Tb-streptavidin 2 nM
Description: Increasing concentrations of compounds were added to pre-mixed biotinylated DCAF15 at 200 nM, Bodipy-FL-labelled RRM2 domain in RBM39 at 200 nM, and terbium (Tb)-coupled streptavidin at 2 nM (Invitrogen) in 384-well microplates in a buffer containing 50 mM Tris pH 7.5, 100 mM NaCl, 0.1% pluronic acid and 2% DMSO. Before TR-FRET measurements were conducted, the reactions were incubated for 15 min at room temperature. After excitation of terbium (Tb) fluorescence at 337 nm, emission at 490 nm (Tb) and 520 nm (Bodipy-FL) were recorded with a 70 μs delay to reduce background fluorescence and the reaction was followed over 1 h by recording 60 technical replicates of each data point using a PHERAstar FS microplate reader (BMG Labtech). The TR-FRET signal of each data point was extracted by calculating the 520/490 nm ratio. Data were analyzed with GraphPad Prism 7.

Chain of DCAF15 and RRM2 domain in RBM39 (Q66K64 whole entry, the tested form may be a part): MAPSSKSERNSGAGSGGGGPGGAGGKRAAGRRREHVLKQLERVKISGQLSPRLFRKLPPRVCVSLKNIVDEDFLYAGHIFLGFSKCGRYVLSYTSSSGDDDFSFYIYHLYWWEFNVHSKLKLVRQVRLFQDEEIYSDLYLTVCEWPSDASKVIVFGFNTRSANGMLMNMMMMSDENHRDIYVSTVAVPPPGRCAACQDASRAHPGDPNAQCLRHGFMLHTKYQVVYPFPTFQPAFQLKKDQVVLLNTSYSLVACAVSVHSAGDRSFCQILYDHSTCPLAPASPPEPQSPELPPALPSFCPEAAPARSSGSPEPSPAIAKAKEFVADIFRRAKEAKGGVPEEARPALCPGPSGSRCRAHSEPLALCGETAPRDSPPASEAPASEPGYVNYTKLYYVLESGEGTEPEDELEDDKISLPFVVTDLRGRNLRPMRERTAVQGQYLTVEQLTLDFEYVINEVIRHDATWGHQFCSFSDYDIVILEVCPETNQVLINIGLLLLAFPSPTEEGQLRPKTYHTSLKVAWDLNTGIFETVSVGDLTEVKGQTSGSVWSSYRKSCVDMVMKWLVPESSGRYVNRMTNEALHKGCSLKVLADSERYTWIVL
Chain of DCAF15 and RRM2 domain in RBM39 (Q14498 250-328): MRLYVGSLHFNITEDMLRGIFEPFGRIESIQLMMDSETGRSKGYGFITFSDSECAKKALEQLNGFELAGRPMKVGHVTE
Chain of DCAF15 and RRM2 domain in RBM39 (Q16531 whole entry partner, the tested form may be a part): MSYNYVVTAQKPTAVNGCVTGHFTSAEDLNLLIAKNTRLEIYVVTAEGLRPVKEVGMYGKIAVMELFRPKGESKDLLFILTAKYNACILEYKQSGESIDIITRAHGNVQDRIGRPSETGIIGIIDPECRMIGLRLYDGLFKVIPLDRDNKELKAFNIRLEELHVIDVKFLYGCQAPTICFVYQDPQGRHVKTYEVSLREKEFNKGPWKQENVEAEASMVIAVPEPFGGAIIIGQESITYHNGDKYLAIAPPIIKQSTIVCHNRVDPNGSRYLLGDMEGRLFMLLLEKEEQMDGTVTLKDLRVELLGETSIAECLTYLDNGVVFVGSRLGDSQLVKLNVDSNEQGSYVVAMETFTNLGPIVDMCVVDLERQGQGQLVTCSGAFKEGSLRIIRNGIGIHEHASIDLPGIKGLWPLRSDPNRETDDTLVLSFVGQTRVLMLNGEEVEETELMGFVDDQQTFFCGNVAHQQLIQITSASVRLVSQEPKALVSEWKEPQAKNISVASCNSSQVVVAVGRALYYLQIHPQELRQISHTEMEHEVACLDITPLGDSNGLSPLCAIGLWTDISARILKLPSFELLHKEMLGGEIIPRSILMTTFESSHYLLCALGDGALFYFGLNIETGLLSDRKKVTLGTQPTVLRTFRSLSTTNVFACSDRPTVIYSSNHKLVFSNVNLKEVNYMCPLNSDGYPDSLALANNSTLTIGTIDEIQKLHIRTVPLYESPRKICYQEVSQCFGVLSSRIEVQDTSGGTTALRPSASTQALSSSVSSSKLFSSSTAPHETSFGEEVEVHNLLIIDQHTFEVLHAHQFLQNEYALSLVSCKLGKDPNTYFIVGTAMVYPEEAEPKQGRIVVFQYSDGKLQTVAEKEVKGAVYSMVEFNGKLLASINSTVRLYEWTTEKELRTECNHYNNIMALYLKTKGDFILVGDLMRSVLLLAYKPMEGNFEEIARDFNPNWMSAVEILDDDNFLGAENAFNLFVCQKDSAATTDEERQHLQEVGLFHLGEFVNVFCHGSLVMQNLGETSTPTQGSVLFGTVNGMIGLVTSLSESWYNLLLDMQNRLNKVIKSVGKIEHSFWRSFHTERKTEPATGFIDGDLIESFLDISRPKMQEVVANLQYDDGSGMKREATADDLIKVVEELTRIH

| SMILES | EC50 [µM] |
| --- | --- |
| Cc1cccc(S(=O)(=O)Nc2ccc(C)c3c(C#N)c[nH]c23)c1 | 1 to 10 |
| Cc1ccc(NS(=O)(=O)c2cccc(C(F)(F)F)c2)c2[nH]cc(C#N)c12 | 1 to 10 |
| Cc1ccc(NS(=O)(=O)c2cccc([N+](=O)[O-])c2)c2[nH]cc(C#N)c12 | 1 to 10 |
| Cc1ccc(NS(=O)(=O)c2cccc(N)c2)c2[nH]cc(C#N)c12 | 1 to 10 |
| CNC(=O)c1cccc(S(=O)(=O)Nc2ccc(C)c3c(C#N)c[nH]c23)c1 | 1 to 10 |
| COC(=O)c1cccc(S(=O)(=O)Nc2ccc(C)c3c(C#N)c[nH]c23)c1 | 1 to 10 |
| Cc1ccc(NS(=O)(=O)c2ccc(C#N)cc2)c2[nH]cc(C#N)c12 | 1 to 10 |
| Cc1ccc(NS(=O)(=O)c2ccccc2[N+](=O)[O-])c2[nH]cc(C#N)c12 | > 10 |
| Cc1ccc(NS(=O)(=O)c2ccc(F)cc2F)c2[nH]cc(C#N)c12 | 1 to 10 |
| COC(=O)c1ccc(S(=O)(=O)Nc2ccc(C)c3c(C#N)c[nH]c23)cc1 | 1 to 10 |
| Cc1ccc(NS(=O)(=O)c2ccc([N+](=O)[O-])cc2)c2[nH]cc(C#N)c12 | 1 to 10 |
| Cc1ccc(NS(=O)(=O)c2cccc(C#N)c2)c2[nH]cc(C=O)c12 | 1 to 10 |
| Cc1ccc(NS(=O)(=O)c2cccc(C#N)c2)c2[nH]ccc12 | > 10 |
| CNC(=O)c1c[nH]c2c(NS(=O)(=O)c3cccc(C#N)c3)ccc(C)c12 | > 10 |
| N#Cc1cccc(S(=O)(=O)Nc2ccc(-c3ccccc3)c3c(C#N)c[nH]c23)c1 | > 10 |
| O=S(=O)(Nc1ncnc2[nH]ccc12)c1ccccc1 | > 10 |
| Cc1ccc(NS(=O)(=O)c2ccccc2OC(F)(F)F)c2[nH]cc(C#N)c12 | > 10 |
| Cc1ccccc1S(=O)(=O)Nc1ccc(C)c2c(C#N)c[nH]c12 | > 10 |
| Cc1ccc(NS(=O)(=O)c2ccccc2C(F)(F)F)c2[nH]cc(C#N)c12 | > 10 |
| Cc1ccc(NS(=O)(=O)c2ccccc2Br)c2[nH]cc(C#N)c12 | > 10 |
| Cc1ccc(NS(=O)(=O)c2ccccc2)c2[nH]cc(C#N)c12 | 1 to 10 |
| Cc1ccc(NS(C)(=O)=O)c2[nH]cc(C#N)c12 | > 10 |

| SMILES | EC50 [µM] |
| --- | --- |
| CC(=O)Nc1ccc(C)c2c(C#N)c[nH]c12 | > 10 |
| N#Cc1cccc(S(=O)(=O)Nc2cc(Cl)cc3cc[nH]c23)c1 | > 10 |
| N#Cc1cccc(S(=O)(=O)Nc2cc(F)cc3c2NC(=O)C3)c1 | > 10 |
| Cc1ccc(NC(=O)c2cccc(C#N)c2)c2[nH]cc(C#N)c12 | > 10 |
| Cc1ccc(NS(=O)(=O)c2cccc(C#N)c2)c2[nH]cc(Cl)c12 | 1 to 10 |
| Cc1ccc(NS(=O)(=O)c2cccc(C#N)c2)c2[nH]cc(Br)c12 | 1 to 10 |
| N#Cc1cccc(S(=O)(=O)Nc2cc(Cl)cc3c(Br)c[nH]c23)c1 | > 10 |
| N#Cc1cccc(S(=O)(=O)Nc2ccc3c(C#N)c[nH]c3c2)c1 | > 10 |
| N#Cc1cccc(S(=O)(=O)Nc2cccc3c(C#N)c[nH]c23)c1 | > 10 |
| CCOC(=O)c1cc2cc(NS(=O)(=O)c3cccc(C#N)c3)ccc2[nH]1 | > 10 |
| N#Cc1cccc(S(=O)(=O)Nc2ncnc3[nH]ccc23)c1 | > 10 |
| N#Cc1cccc(S(=O)(=O)Nc2ncnc3[nH]cc(Cl)c23)c1 | > 10 |
| N#Cc1cccc(S(=O)(=O)Nc2cccn3ncnc23)c1 | > 10 |
| N#Cc1cccc(S(=O)(=O)Nc2cc(-c3ccccc3)cc3c(C#N)c[nH]c23)c1 | > 10 |
| N#Cc1cccc(S(=O)(=O)Nc2cc(-c3ccccc3)cc3cc[nH]c23)c1 | > 10 |
| COCCNc1ccc(S(=O)(=O)Nc2ccc(C)c3c(C#N)c[nH]c23)cc1C#N | 1 to 10 |
| N#Cc1cccc(S(=O)(=O)Nc2ccc(-c3ccccc3)c3cc[nH]c23)c1 | > 10 |
| N#Cc1cccc(S(=O)(=O)Nc2cccc3c2CNC3=O)c1 | > 10 |
| CCOC(=O)c1cc2c(C)ccc(NS(=O)(=O)c3cccc(C#N)c3)c2[nH]1 | > 10 |
| N#Cc1cccc(S(=O)(=O)Nc2cccc(C(N)=O)c2N)c1 | > 10 |
| N#Cc1cccc(S(=O)(=O)Nc2ccc3[nH]cc(C#N)c3c2)c1 | > 10 |
| N#Cc1cccc(S(=O)(=O)Nc2cccc3c(Cl)n[nH]c23)c1 | > 10 |
